Laboratory results: patent publication US8481525B2, “Kinase inhibitors and method of treating cancer with same” (University of Health Network, priority 2009, dated 2013)

Assays:
[1] = system: HCC1954 basal breast cancer cell line; assay: Cell growth inhibition, Sulforhodamine B assay (SRB); format: cell-based; conditions: Homo sapiens, HCC1954, 120 h, read-out: Cell Line GI50 Range HCC-1954
In short: (§1)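 Cells were exposed to compound for 5 days, then fixed in situ with cold 10% TCA and stained with sulforhodamine B, with absorbance read at 570 nm.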

[2] = system: SW620 colon cancer cell line; assay: as above; format: cell-based; conditions: Homo sapiens, SW-620, 120 h, read-out: Cell Line GI50 Range SW-620, SW620 colon cancer cell line; 5 days culture; SRB
In short: as §1

[3] = system: 184A1 immortalized breast cell line; assay: Cell growth inhibition, SRB assay, extended panel; format: cell-based; conditions: 184A1, 120 h, read-out: GI50 Range
Experimental: (§2) The cells were cultured for 5 days before the Sulforhodamine B assay (SRB) was performed to determine the compound's cell growth inhibition activity.
(§3) Sulforhodamine B (purchased from Sigma, Oakville, ON, Canada) is a water-soluble dye that binds to the basic amino acids of the cellular proteins. Thus, colorimetric measurement of the bound dye provides an estimate of the total protein mass that is related to the cell number. the cells are fixed in situ by gently aspirating off the culture media and adding 50 μl ice cold 10% Trichloroacetic Acid (TCA) per well and incubate at 4° C. for 30-60 min, The plates are washed with water five times and allowed to air dry for 5 min. […] Following staining, plates are washed four times with 1% acetic acid to remove unbound dye and then allowed to air dry for 5 min. […] Absorbance is read at 570 nm.
(§4) The percentage (%) of relative growth inhibition was calculated by comparing to DMSO treated only cells (100%). GI50's were determined for compounds with cytotoxic activity. The GI50 was calculated using GraphPad PRISM software (GraphPad Software, Inc., San Diego, Calif., USA).
(§5) The sulforhodamine B assay (SRB) described above was use to assay test compounds against the extended panel (Table 6).

[4] = system: BT474 breast cancer cell line; assay: Cell growth inhibition, SRB assay, extended panel; format: cell-based; conditions: Homo sapiens, BT-474, 120 h, read-out: GI50 Range
Experimental: as §2, §3, §4, §5

[5] = system: HCT-15 colon cancer cell line; assay: Cell growth inhibition, SRB assay, extended panel; format: cell-based; conditions: Homo sapiens, HCT-15, 120 h, read-out: GI50 Range
Experimental: as §2, §3, §4, §5

[6] = system: HCT116+/+ colon cancer cell line; assay: Cell growth inhibition, SRB assay, extended panel; format: cell-based; conditions: Homo sapiens, HCT-116, 120 h, read-out: GI50 Range
Experimental: as §2, §3, §4, §5

[7] = system: HCT116+/− colon cancer cell line; assay: Cell growth inhibition, SRB assay, extended panel; format: cell-based; conditions: Homo sapiens, HCT-116, 120 h, read-out: GI50 Range
Experimental: as §2, §3, §4, §5

[8] = system: PC-3 prostate cancer cell line; assay: Cell growth inhibition, SRB assay, extended panel; format: cell-based; conditions: 120 h, read-out: GI50 Range
Experimental: as §2, §3, §4, §5

[9] = system: SK-OV-3 ovarian cancer cell line; assay: Cell growth inhibition, SRB assay, extended panel; format: cell-based; conditions: Homo sapiens, SK-OV-3, 120 h, read-out: GI50 Range
Experimental: as §2, §3, §4, §5

[10] = system: SKBR3 breast cancer cell line; assay: Cell growth inhibition, SRB assay, extended panel; format: cell-based; conditions: Homo sapiens, SK-BR-3, 120 h, read-out: GI50 Range
Experimental: as §2, §3, §4, §5

[11] = system: SW 626 ovarian cancer cell line; assay: Cell growth inhibition, SRB assay, extended panel; format: cell-based; conditions: Homo sapiens, SW626, 120 h, read-out: GI50 Range
Experimental: as §2, §3, §4, §5

HUV-EC-C cells = assay: In Vitro Angiogenesis Assay (tube formation); conditions: HUV-EC-C cells on ECMatrix, 4 hr; FIGS. 1 and 2
[12] = system: human mammary epithelial primary cells (HMEC); assay: Cell growth inhibition, Sulforhodamine B assay (SRB); conditions: 120 h, read-out: Cell Line GI50 Range HMEC

`CN(C)Cc1ccc(/C=C/c2n[nH]c3cc([C@@H]4C[C@@]45C(=O)Nc4ccccc45)ccc23)cc1` (racemic) [Example A23, (1R*,2S*)-(E)-2-(3-(4-((dimethylamino)methyl)styryl)-1H-indazol-6-yl)spiro[cyclopropane-1,3′-indolin]-2′-one 2,2,2-trifluoroacetate] gave a GI50 [1] of 1 to 10 µM, a GI50 [2] of under 0.1 µM and a GI50 [3] of 1 to 50 µM. It also gave a GI50 [4] of 1 to 50 µM, a GI50 [5] of 1 to 50 µM and a GI50 [6] of 1 to 50 µM. For the same compound, the GI50 [7] was 1 to 50 µM, the GI50 [8] was 1 to 50 µM and the GI50 [9] was 1 to 50 µM. For the same compound, the GI50 [10] was 1 to 50 µM, the GI50 [11] was 1 to 50 µM and the “anti-angiogenic effect (tube formation, % of control tube count)” value (HUV-EC-C cells) was “anti-agiogenic effects at submicromolar concentrations”. It also gave a GI50 [12] of over 10 µM.
